Test results reported in ChEMBL document CHEMBL1201862, “PubChem BioAssay data set” (2004).
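Cells were grown in 96-well plates and exposed to each compound for 48 hours at five concentrations; endpoints were interpolated linearly between bracketing concentrations, or set to the highest concentration if not reached. GI50 marks 50% less growth.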 The source made the active and inactive calls. Rule as the data show it: active = GI50 up to about 1.1 µM and inactive = higher.

Tests used:
Test in all cases: DTP human tumour cell line panel, 48 h
[1] = test system: SR
[2] = test system: SW-620
[3] = test system: NCI-H226
[4] = test system: COLO 205
[5] = test system: SK-MEL-5
[6] = test system: HCT-116
[7] = test system: SK-OV-3
[8] = test system: OVCAR-5
[9] = test system: SK-MEL-28
[10] = test system: Hs-578T
[11] = test system: EKVX
[12] = test system: HCT-15
[13] = test system: SF-268
[14] = test system: CCRF-CEM
[15] = test system: HOP-62
[16] = test system: UO-31
[17] = test system: TK-10
[18] = test system: ACHN
[19] = test system: MOLT-4
[20] = test system: LOX IMVI
[21] = test system: NCI/ADR-RES
[22] = test system: NCI-H460
[23] = test system: K562
[24] = test system: BT-549
[25] = test system: DU-145
[26] = test system: OVCAR-4
[27] = test system: RXF 393
[28] = test system: UACC-62
[29] = test system: NCI-H23
[30] = test system: SNB-19
[31] = test system: CAKI-1
[32] = test system: SF-295
[33] = test system: MDA-MB-231
[34] = test system: OVCAR-3
[35] = test system: A498
[36] = test system: A549
[37] = test system: HT-29
[38] = test system: MCF7
[39] = test system: MDA-MB-435
[40] = test system: OVCAR-8
[41] = test system: RPMI-8226
[42] = test system: UACC-257
[43] = test system: SK-MEL-2
[44] = test system: HL-60
[45] = test system: U-251
[46] = test system: SF-539
[47] = test system: PC-3
[48] = test system: M14
[49] = test system: Malme-3M
[50] = test system: HOP-92
[51] = test system: T47D
[52] = test system: SN12C
[53] = test system: IGROV-1
[54] = test system: KM12
[55] = test system: HCC 2998
[56] = test system: SNB-75
[57] = test system: NCI-H522
[58] = test system: 786-0

CC1(C)CCc2c(ccc(C(=O)/C=C/c3ccc(O)cc3)c2O)O1 [DORSMANNIN A]
GI50 [1]: 11.9 µM (inactive)
GI50 [2]: 13 µM (inactive)
GI50 [3]: 11.3 µM (inactive)
GI50 [4]: 10.9 µM (inactive)
GI50 [5]: 11.2 µM (inactive)
GI50 [6]: 10.3 µM (inactive)
GI50 [7]: 17.7 µM (inactive)
GI50 [8]: 11.6 µM (inactive)
GI50 [9]: 0.201 µM (active)
GI50 [10]: 14.1 µM (inactive)
GI50 [11]: 0.142 µM (active)
GI50 [12]: 10.8 µM
GI50 [13]: 12.9 µM (inactive)
GI50 [14]: 2.78 µM (inactive)
GI50 [15]: 9.91 µM (inactive)
GI50 [16]: 12.3 µM (inactive)
GI50 [17]: 10.3 µM (inactive)
GI50 [18]: 10.7 µM (inactive)
GI50 [19]: 16.1 µM (inactive)
GI50 [20]: 10.2 µM (inactive)
GI50 [21]: 11.4 µM (inactive)
GI50 [22]: 12.1 µM (inactive)
GI50 [23]: 27.8 µM (inactive)
GI50 [24]: 12.2 µM (inactive)
GI50 [25]: 9.25 µM (inactive)
GI50 [26]: 9.48 µM (inactive)
GI50 [27]: 10.6 µM (inactive)
GI50 [28]: 10 µM (inactive)
GI50 [29]: 12.5 µM (inactive)
GI50 [30]: 13.9 µM (inactive)
GI50 [31]: 5.28 µM (inactive)
GI50 [32]: 12.4 µM (inactive)
GI50 [33]: 9.25 µM (inactive)
GI50 [34]: 8.99 µM (inactive)
GI50 [35]: 13.7 µM (inactive)
GI50 [36]: 11.9 µM (inactive)
GI50 [37]: 11.9 µM (inactive)
GI50 [38]: 14.2 µM (inactive)
GI50 [39]: 10.3 µM (inactive)
GI50 [40]: 12 µM (inactive)
GI50 [41]: 8.39 µM (inactive)
GI50 [42]: 12.5 µM (inactive)
GI50 [43]: 11.9 µM (inactive)
GI50 [44]: 19.7 µM (inactive)
GI50 [45]: 10.4 µM (inactive)
GI50 [46]: 11.9 µM (inactive)
GI50 [47]: 8.57 µM (inactive)
GI50 [48]: 10.9 µM (inactive)
GI50 [49]: 7.59 µM (inactive)
GI50 [50]: 11.2 µM (inactive)
GI50 [51]: 1.56 µM (inactive)
GI50 [52]: 10.9 µM (inactive)
GI50 [53]: 9.1 µM (inactive)

CN1C(=O)C(O)CC1c1cccc(C(F)(F)F)c1 (stereo not given)
GI50 [54]: > 100 µM (inactive)
GI50 [2]: > 100 µM (inactive)
GI50 [3]: > 100 µM (inactive)
GI50 [4]: > 100 µM (inactive)
GI50 [5]: > 100 µM (inactive)
GI50 [6]: > 100 µM (inactive)
GI50 [55]: > 100 µM (inactive)
GI50 [7]: > 100 µM (inactive)
GI50 [8]: > 100 µM (inactive)
GI50 [9]: > 100 µM (inactive)
GI50 [10]: > 100 µM (inactive)
GI50 [11]: > 100 µM (inactive)
GI50 [12]: > 100 µM
GI50 [13]: > 100 µM (inactive)
GI50 [14]: > 100 µM (inactive)
GI50 [15]: > 100 µM (inactive)
GI50 [16]: > 100 µM (inactive)
GI50 [17]: > 100 µM (inactive)
GI50 [18]: > 100 µM (inactive)
GI50 [56]: > 100 µM (inactive)
GI50 [19]: > 100 µM (inactive)
GI50 [20]: > 100 µM (inactive)
GI50 [21]: > 100 µM (inactive)
GI50 [22]: > 100 µM (inactive)
GI50 [23]: > 100 µM (inactive)
GI50 [24]: > 100 µM (inactive)
GI50 [25]: > 100 µM (inactive)
GI50 [26]: > 100 µM (inactive)
GI50 [27]: > 100 µM (inactive)
GI50 [28]: > 100 µM (inactive)
GI50 [29]: > 100 µM (inactive)
GI50 [30]: > 100 µM (inactive)
GI50 [57]: > 100 µM (inactive)
GI50 [31]: > 100 µM (inactive)
GI50 [32]: > 100 µM (inactive)
GI50 [33]: > 100 µM (inactive)
GI50 [34]: > 100 µM (inactive)
GI50 [35]: > 100 µM (inactive)
GI50 [36]: > 100 µM (inactive)
GI50 [37]: > 100 µM (inactive)
GI50 [38]: > 100 µM (inactive)
GI50 [39]: > 100 µM (inactive)
GI50 [58]: > 100 µM (inactive)
GI50 [40]: > 100 µM (inactive)
GI50 [41]: > 100 µM (inactive)
GI50 [42]: > 100 µM (inactive)
GI50 [43]: > 100 µM (inactive)
GI50 [44]: > 100 µM (inactive)
GI50 [45]: > 100 µM (inactive)
GI50 [46]: > 100 µM (inactive)
GI50 [47]: > 100 µM (inactive)
GI50 [48]: > 100 µM (inactive)
GI50 [49]: > 100 µM (inactive)
GI50 [50]: > 100 µM (inactive)
GI50 [51]: > 100 µM (inactive)
GI50 [52]: > 100 µM (inactive)
GI50 [53]: > 100 µM (inactive)

CC(=O)OCc1cc2ccccc2nc1C(Br)(Br)Br
GI50 [1]: 1.46 µM (inactive)
GI50 [54]: 13 µM (inactive)
GI50 [2]: 18.7 µM (inactive)
GI50 [3]: 21.5 µM (inactive)
GI50 [4]: 19.6 µM (inactive)
GI50 [5]: 11.1 µM (inactive)
GI50 [6]: 12.5 µM (inactive)
GI50 [55]: 15.4 µM (inactive)
GI50 [7]: 28.3 µM (inactive)
GI50 [8]: 15.4 µM (inactive)
GI50 [9]: 17.9 µM (inactive)
GI50 [10]: 27 µM (inactive)
GI50 [11]: 19.1 µM (inactive)
GI50 [12]: 16.9 µM
GI50 [13]: 17.8 µM (inactive)
GI50 [14]: 10.9 µM (inactive)
GI50 [15]: 26.1 µM (inactive)
GI50 [16]: 15.6 µM (inactive)
GI50 [17]: 16.1 µM (inactive)
GI50 [18]: 13.2 µM (inactive)
GI50 [56]: 14.6 µM (inactive)
GI50 [19]: 9.02 µM (inactive)
GI50 [20]: 11.1 µM (inactive)
GI50 [21]: 17.1 µM (inactive)
GI50 [22]: 16.2 µM (inactive)
GI50 [23]: 18 µM (inactive)
GI50 [24]: 10.4 µM (inactive)
GI50 [25]: 4.59 µM (inactive)
GI50 [26]: 11.8 µM (inactive)
GI50 [27]: 15.4 µM (inactive)
GI50 [28]: 15.5 µM (inactive)
GI50 [29]: 13.6 µM (inactive)
GI50 [30]: 20.1 µM (inactive)
GI50 [57]: 16 µM (inactive)
GI50 [31]: 15.7 µM (inactive)
GI50 [32]: 16.4 µM (inactive)
GI50 [33]: 19.3 µM (inactive)
GI50 [34]: 14.8 µM (inactive)
GI50 [35]: 21.2 µM (inactive)
GI50 [36]: 16.4 µM (inactive)
GI50 [37]: 21.6 µM (inactive)
GI50 [38]: 14.7 µM (inactive)
GI50 [39]: 13.3 µM (inactive)
GI50 [58]: 19.4 µM (inactive)
GI50 [42]: 12.4 µM (inactive)
GI50 [43]: 18.5 µM (inactive)
GI50 [44]: 14.9 µM (inactive)
GI50 [45]: 14 µM (inactive)
GI50 [46]: 21.1 µM (inactive)
GI50 [48]: 18.8 µM (inactive)
GI50 [49]: 0.603 µM (active)
GI50 [50]: 11.7 µM (inactive)
GI50 [51]: 27.8 µM (inactive)
GI50 [52]: 13.2 µM (inactive)
GI50 [53]: 12 µM (inactive)
